Measurements: US20250230147A1, “LACTAMS AS CBL-B INHIBITORS” (Genentech, Inc., priority 2021, published 2025)

Assays:
c-Cbl = c-Cbl (Homo sapiens (Human), UniProt P22681); test: C-Cbl LCK Ub TR-FRET assay (c-cbl Lck HTRF); assay type: biochemical; conditions: for (fold-selectivity): C-cbl Lck HTRF IC50 relative to Cbl-b Lck HTRF IC50
Protocol: 6 μL of detection mixture was added to all wells and briefly centrifuged before incubating for 20 min at room temperature. […] IC50 was generated using no LCK as the low control and DMSO as the high control.

Cbl-b = Cbl-b (Homo sapiens (Human), UniProt Q13191); test: Cbl-b LCK Ub TR-FRET assay (Cbl-b Lck HTRF); assay type: biochemical
Chain of Cbl-b (Q13191 40-426): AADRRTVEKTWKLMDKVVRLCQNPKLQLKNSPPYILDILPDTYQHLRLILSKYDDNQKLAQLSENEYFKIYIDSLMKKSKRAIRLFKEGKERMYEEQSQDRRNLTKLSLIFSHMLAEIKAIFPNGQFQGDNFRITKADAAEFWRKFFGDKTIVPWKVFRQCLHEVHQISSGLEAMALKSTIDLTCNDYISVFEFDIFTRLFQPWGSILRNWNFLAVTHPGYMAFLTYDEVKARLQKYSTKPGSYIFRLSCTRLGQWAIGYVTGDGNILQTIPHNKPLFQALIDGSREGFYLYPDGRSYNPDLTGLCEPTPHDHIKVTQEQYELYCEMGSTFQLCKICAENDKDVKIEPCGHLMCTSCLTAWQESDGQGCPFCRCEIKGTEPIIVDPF
Protocol: Compounds were 3-fold serially diluted in DMSO in a 384-well polypropylene plate (#P-05525-BC; Labcyte) to generate a source plate with 10 concentrations of each compound, top concentration=2 mM. 80 nL of DMSO or compounds were transferred to each well of a black 384-well ProxiPlate (#6008260; PerkinElmer) using a Labcyte Echo. 1×assay buffer (50 mM HEPES pH7.0, 100 mM NaCl, 0.01% BSA, 0.01% Triton-X100, 1 mM DTT), 2×enzyme solution (16 nM Biotin-Cbl-b or 12 nM Biotin-c-Cbl in 1× assay buffer), 2×kinase mixture (120 nM His-LCK, 1 mM ATP, 10 mM MgCl2 in assay buffer) and 2.33×detection mixture (4.66×solution 1: 163 nM Anti-HA-D2 antibody (#610HADAB; PerkinElmer), 27.96 nM Streptavidin-EU (#AD0062; PerkinElmer), 1.398 mM EDTA in 1×assay buffer+4.66×solution 2: 2.796 μM UBE2D2/Methylated-HA-Ubiquitin thioester adduct (BostonBiochem) in 1×assay buffer) were prepared. 4 μL of 2× enzyme solution was added to each well containing compound, briefly centrifuged to mix, and incubated for 60 min at room temperature. 4 μL of 2× kinase mixture was added, briefly centrifuged to mix, and incubated for 90 min. at room temperature. 6 μL of detection mixture was added to all wells and briefly centrifuged before incubating for 20 min at room temperature. Plates were read for TR-FRET using an Envision at excitation 340 nm, emission at 615 and 665 nm, 4 flashes per well. IC50 was generated using no LCK as the low control and DMSO as the high control.
Cbl-b Lck HTRF data in Table 7 is measured according to Example 76 herein; C-cbl Lck HTRF data is measured according to Example 76 herein.

Chain of c-Cbl (P22681 47-435): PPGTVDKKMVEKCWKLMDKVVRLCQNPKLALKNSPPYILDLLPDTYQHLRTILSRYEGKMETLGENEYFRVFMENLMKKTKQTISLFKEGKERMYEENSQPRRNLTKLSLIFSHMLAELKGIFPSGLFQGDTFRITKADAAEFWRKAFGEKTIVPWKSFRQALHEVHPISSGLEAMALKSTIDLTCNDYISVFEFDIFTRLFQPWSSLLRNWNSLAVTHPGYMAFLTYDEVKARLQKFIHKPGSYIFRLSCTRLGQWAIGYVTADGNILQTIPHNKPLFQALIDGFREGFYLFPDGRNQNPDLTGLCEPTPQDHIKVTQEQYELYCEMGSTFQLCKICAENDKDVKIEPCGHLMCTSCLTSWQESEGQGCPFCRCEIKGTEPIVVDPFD

IC50 (c-Cbl)	(fold-selectivity) (c-Cbl)	IC50 (Cbl-b)	Compound
620 nM	1.5x	420 nM	Cn1cnnc1CC1(c2cccc(N3Cc4c(cc(C5CCCN5)cc4C(F)(F)F)C3=O)c2)COC1.O=CO (racemic) [Compound 11, 2-(3-(3-((4-methyl-4H-1,2,4-triazol-3-yl)methyl)oxetan-3-yl)phenyl)-6-(pyrrolidin-2-yl)-4-(trifluoromethyl)isoindolin-1-one formate]
20000 nM	2.0x	10000 nM	Cn1cnnc1CC(F)c1cccc(N2Cc3c(cccc3C(F)(F)F)C2=O)c1 (racemic) [Compound 14, 2-[3-[1-fluoro-2-(4-methyl-4H-1,2,4-triazol-3-yl)ethyl]phenyl]-4-(trifluoromethyl)isoindolin-1-one]
90 nM	1.7x	54 nM	Cn1cnnc1CC1(c2cccc(N3Cc4c(cc(C5CCNC5)cc4C(F)(F)F)C3=O)c2)COC1.O=CO (racemic) [Compound 50, (±)-2-(3-(3-((4-methyl-4H-1,2,4-triazol-3-yl)methyl)oxetan-3-yl)phenyl)-6-(pyrrolidin-3-yl)-4-(trifluoromethyl)isoindolin-1-one formate]
230 nM	1.8x	120 nM	Cn1cnnc1[C@@H](F)C1(c2cccc(N3Cc4c(cc(CN5CC(C)(O)C5)cc4C(F)(F)F)C3=O)c2)CC1 (single isomer, unassigned) [Compound 29]
91 nM	1.4x	65 nM	Cn1cnnc1[C@H](F)C1(c2cccc(N3Cc4c(cc(CN5CC(C)(O)C5)cc4C(F)(F)F)C3=O)c2)CC1 (single isomer, unassigned) [Compound 30]
150 nM	(1.1x)	140 nM	CC(C)[C@H]1CN(C)CCN1Cc1cc2c(c(C(F)(F)F)c1)CN(c1cccc([C@]3([C@@H](F)c4nncn4C)CCO3)c1)C2=O (single isomer, unassigned) [Compound 261]
840 nM	(1.4x)	580 nM	CC(C)[C@H]1CN(C)CCN1Cc1cc2c(c(C(F)(F)F)c1)CN(c1cccc([C@]3([C@H](F)c4nncn4C)CCO3)c1)C2=O (single isomer, unassigned) [Compound 262]
77 nM	(1.5x)	51 nM	CC[C@H]1CCC[C@@H](c2cc3c(c(C(F)(F)F)c2)CN(c2cccc(C4(Cc5nncn5C)CC(F)(F)C4)c2)C3=O)N1 (single isomer, unassigned) [Compound 273]
	3.4x		Cn1cnnc1[C@H](F)[C@@](C)(F)c1cccc(N2Cc3c(cc(CN4CCC5(CC5)C4)cc3C(F)(F)F)C2=O)c1 [Compound 128, 6-(5-azaspiro[2.4]heptan-5-ylmethyl)-2-(3-((1S,2S)-1,2-difluoro-1-(4-methyl-4H-1,2,4-triazol-3-yl)propan-2-yl)phenyl)-4-(trifluoromethyl)isoindolin-1-one]
	3.6x		Cn1cnnc1[C@@H](F)[C@](C)(F)c1cccc(N2Cc3c(cc(CN4CCC5(CC5)C4)cc3C(F)(F)F)C2=O)c1 [Compound 129, 6-(5-azaspiro[2.4]heptan-5-ylmethyl)-2-(3-((1R,2R)-1,2-difluoro-1-(4-methyl-4H-1,2,4-triazol-3-yl)propan-2-yl)phenyl)-4-(trifluoromethyl)isoindolin-1-one]
	3.3x		Cn1cnnc1[C@@H](F)[C@@](C)(F)c1cccc(N2Cc3c(cc(CN4CCC5(CC5)C4)cc3C(F)(F)F)C2=O)c1 [Compound 130, 6-(5-azaspiro[2.4]heptan-5-ylmethyl)-2-(3-((1R,2S)-1,2-difluoro-1-(4-methyl-4H-1,2,4-triazol-3-yl)propan-2-yl)phenyl)-4-(trifluoromethyl)isoindolin-1-one]
	(0.70x)		Cn1cnnc1[C@H](F)C1(c2cccc(N3Cc4c(Cl)cc(CNC5(C)CCC5)cc4C3=O)c2)COC1 [Compound 470, (R)-4-chloro-2-(3-(3-(fluoro(4-methyl-4H-1,2,4-triazol-3-yl)methyl)oxetan-3-yl)phenyl)-6-(((1-methylcyclobutyl)amino)methyl) isoindolin-1-one]
